Assay results as given in ChEMBL document CHEMBL5131414, “Design, synthesis, and evaluation of phenylpiperazine-phenylacetate derivatives as rapid recovery hypnotic agents” (Bioorg Med Chem Lett, 2022).

Key:
[1] = Toxicity in mouse assessed as lethal dose; conditions: in vivo
Mus musculus [2] = test: Anesthetic activity in mouse assessed as concentration required to induce hypnotic effect; type: functional, organism-based
[3] = target: GABA-A receptor; anion channel (Homo sapiens) (UniProt P14867+P47870+P18507+P28472+P48169+Q99928+Q9UN88+P34903+O00591+O14764+Q8N1C3+P18505+P78334+P47869+P31644+Q16445); test: Inhibition of GABAA receptor (unknown origin) at 50 uM by radioligand receptor binding assay relative to control; type: protein-complex assay
[4] = Therapeutic index, ratio of LD50 for toxicity in mouse to HD50 for anesthetic activity in mouse; type: organism-based; conditions: in vivo, read-out: TI
[5] = Lipophilicity, logP of the compound; type: physicochemical; conditions: octanol/water
[6] = Therapeutic index, ratio of LD50 for toxicity in rat to HD50 for anesthetic activity in rat; conditions: read-out: TI
Rattus norvegicus [7] = test: Anesthetic activity in rat assessed as time to walk at 2 times of HD50 concentration; type: functional
Oryctolagus cuniculus [8] = test: Anesthetic activity in rabbit assessed as onset time; type: functional
Mus musculus [9] = test: Anesthetic activity in mouse assessed as time to walk at 2 times of HD50 concentration; type: functional
Oryctolagus cuniculus [10] = test: Anesthetic activity in rabbit assessed as time to walk at 2 times of HD50 concentration; type: functional
[11] = Therapeutic index, ratio of LD50 for toxicity in rabbit to HD50 for anesthetic activity in rabbit; conditions: read-out: TI
[12] = Toxicity in rat assessed as lethal dose; conditions: in vivo
Mus musculus [13] = test: Anesthetic activity in mouse assessed as time duration of loss of righting reflex; type: functional
Rattus norvegicus [14] = test: Anesthetic activity in rat assessed as onset time; type: functional
[15] = Toxicity in rabbit assessed as lethal dose; set-up: species or system Oryctolagus cuniculus; conditions: in vivo
Mus musculus [16] = test: Anesthetic activity in mouse assessed as onset time; type: functional
Rattus norvegicus [17] = test: Anesthetic activity in rat assessed as time duration of loss of righting reflex; type: functional
Rattus norvegicus [18] = test: Anesthetic activity in rat assessed as concentration required to induce hypnotic effect; type: functional, organism-based
Oryctolagus cuniculus [19] = test: Anesthetic activity in rabbit assessed as time duration of loss of righting reflex; type: functional
Oryctolagus cuniculus [20] = test: Anesthetic activity in rabbit assessed as concentration required to induce hypnotic effect; type: functional, organism-based

Compound	LD50 [1]	HD50 (median hypnotic dose) (Mus musculus [2])	inhibition [3]	selectivity ratio [4]	logP [5]	selectivity ratio [6]	Time (Rattus norvegicus [7])	Time (Oryctolagus cuniculus [8])	Time (Mus musculus [9])	Time (Oryctolagus cuniculus [10])	selectivity ratio [11]	LD50 [12]	Time (Mus musculus [13])	Time (Rattus norvegicus [14])	LD50 [15]	Time (Mus musculus [16])	Time (Rattus norvegicus [17])	EC50 (Rattus norvegicus [18])	Time (Oryctolagus cuniculus [19])	EC50 (Oryctolagus cuniculus [20])
CCOc1cc(CC(=O)OC(C)C)ccc1OCC(=O)N1CCN(c2cccc(Cl)c2Cl)CC1	254 mg/kg	39.5 mg/kg	35.9%	6.4	4.6	–	–	–	–	–	–	–	–	–	–	–	–	–	–	–
CCOc1cc(CC(=O)OC(C)C)ccc1OCC(=O)N1CCN(c2cccc(C)c2C)CC1	200 mg/kg	31.4 mg/kg	42.7%	6.4	4.4	–	–	–	–	–	–	–	–	–	–	–	–	–	–	–
CCOC(=O)Cc1ccc(OCC(=O)N2CCN(c3cccc(C)c3C)CC2)c(OCC)c1	209 mg/kg	32.2 mg/kg	38.7%	6.5	4.1	–	–	–	–	–	–	–	–	–	–	–	–	–	–	–
CCCOC(=O)Cc1ccc(OCC(=O)N2CCN(c3cccc(C(F)(F)F)c3)CC2)c(OCC)c1	176 mg/kg	33.6 mg/kg	49.6%	5.2	4.5	–	–	–	–	–	–	–	–	–	–	–	–	–	–	–
CCOc1cc(CC(=O)OC(C)C)ccc1OCC(=O)N1CCN(c2cccc(C(F)(F)F)c2)CC1	163 mg/kg	31.6 mg/kg	54.7%	5.1	4.4	–	–	–	–	–	–	–	–	–	–	–	–	–	–	–
CCCOC(=O)Cc1ccc(OCC(=O)N2CCN(c3ccccc3)CC2)c(OC)c1	190 mg/kg	33.2 mg/kg	35.6%	5.7	3.3	–	–	–	–	–	–	–	–	–	–	–	–	–	–	–
CCCOC(=O)Cc1ccc(OCC(=O)N(CC)CC)c(OC)c1 [PROPANIDID]	–	–	83.2%	5.6	2.1	9.6	58.7 s	22.6 s	56.3 s	124.5 s	14.7	81 mg/kg	89.6 s	16.3 s	75.4 mg/kg	6.7 s	93.3 s	8.4 mg/kg	265.4 s	5.1 mg/kg
CCCOC(=O)Cc1ccc(OCC(=O)N2CCN(c3cccc(Cl)c3Cl)CC2)c(OCC)c1	201 mg/kg	38.6 mg/kg	33.3%	5.2	4.7	–	–	–	–	–	–	–	–	–	–	–	–	–	–	–
CCCOC(=O)Cc1ccc(OCC(=O)N(CC)CC)c(OCC)c1 [AZD-3043]	–	17.6 mg/kg	70.2%	6	2.5	10.1	38.4 s	19.8 s	46.7 s	89.6 s	16.8	79.8 mg/kg	63.8 s	12.4 s	77.3 mg/kg	5.6 s	74.2 s	7.9 mg/kg	221.6 s	4.6 mg/kg
CCOC(=O)Cc1ccc(OCC(=O)N2CCN(c3cccc(Cl)c3Cl)CC2)c(OCC)c1	237 mg/kg	36.5 mg/kg	42.1%	6.5	4.3	–	–	–	–	–	–	–	–	–	–	–	–	–	–	–
